Measurements: US7632666B2 (priority 2005, dated 2009)

Experiments:
[1] = target: haloalkane dehalogenase LinB (Sphingobium indicum, UniProt D4Z2G1); format: biochemical, Sphingomonas paucimobilis UT26
[2] = target: haloalkane dehalogenase DbjA (Bradyrhizobium diazoefficiens, UniProt P59337); format: biochemical, Bradyrhizobium japonicum USDA110
[3] = target: haloalkane dehalogenase DhaA (Rhodococcus rhodochrous, UniProt P0A3G2); format: biochemical, Rhodococcus rhodochrous NCIMB 13064
[4] = target: haloalkane dehalogenase DhlA (Xanthobacter autotrophicus, UniProt P22643); format: biochemical, Xanthobacter autotrophicus GJ10
[5] = target: haloalkane dehalogenase LinB L177D (Sphingobium indicum, UniProt D4Z2G1, L177D); format: biochemical
[6] = target: haloalkane dehalogenase LinB L177T (Sphingobium indicum, UniProt D4Z2G1, L177T); format: biochemical
[7] = target: haloalkane dehalogenase LinB L177A (Sphingobium indicum, UniProt D4Z2G1, L177A); format: biochemical
[8] = target: haloalkane dehalogenase LinB L177G (Sphingobium indicum, UniProt D4Z2G1, L177G); format: biochemical
[9] = target: haloalkane dehalogenase LinB L177Q (Sphingobium indicum, UniProt D4Z2G1, L177Q); format: biochemical
[10] = target: haloalkane dehalogenase LinB L177S (Sphingobium indicum, UniProt D4Z2G1, L177S); format: biochemical
[11] = target: haloalkane dehalogenase LinB L177F (Sphingobium indicum, UniProt D4Z2G1, L177F); format: biochemical
[12] = target: haloalkane dehalogenase LinB L177H (Sphingobium indicum, UniProt D4Z2G1, L177H); format: biochemical
[13] = target: haloalkane dehalogenase LinB L177C (Sphingobium indicum, UniProt D4Z2G1, L177C); format: biochemical
[14] = target: haloalkane dehalogenase LinB L177V (Sphingobium indicum, UniProt D4Z2G1, L177V); format: biochemical
[15] = target: haloalkane dehalogenase LinB L177M (Sphingobium indicum, UniProt D4Z2G1, L177M); format: biochemical
[16] = target: haloalkane dehalogenase LinB wild type (Sphingobium indicum, UniProt D4Z2G1); format: biochemical, Sphingomonas paucimobilis UT26
[17] = target: haloalkane dehalogenase LinB L177Y (Sphingobium indicum, UniProt D4Z2G1, L177Y); format: biochemical
[18] = target: haloalkane dehalogenase LinB L177R (Sphingobium indicum, UniProt D4Z2G1, L177R); format: biochemical
[19] = target: haloalkane dehalogenase LinB L177W (Sphingobium indicum, UniProt D4Z2G1, L177W); format: biochemical
[20] = target: haloalkane dehalogenase LinB L177K (Sphingobium indicum, UniProt D4Z2G1, L177K); format: biochemical
Chain of haloalkane dehalogenase LinB L177K (D4Z2G1 whole entry L177K, looked up): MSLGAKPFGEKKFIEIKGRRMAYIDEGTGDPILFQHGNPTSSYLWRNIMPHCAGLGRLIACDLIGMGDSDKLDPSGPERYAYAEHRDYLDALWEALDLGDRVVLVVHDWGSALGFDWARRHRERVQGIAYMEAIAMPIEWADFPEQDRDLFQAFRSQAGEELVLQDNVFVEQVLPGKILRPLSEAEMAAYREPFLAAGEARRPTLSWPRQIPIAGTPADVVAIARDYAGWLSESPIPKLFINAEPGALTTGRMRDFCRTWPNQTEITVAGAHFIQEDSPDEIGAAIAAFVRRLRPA

Chain of haloalkane dehalogenase DhaA (P0A3G2 whole entry): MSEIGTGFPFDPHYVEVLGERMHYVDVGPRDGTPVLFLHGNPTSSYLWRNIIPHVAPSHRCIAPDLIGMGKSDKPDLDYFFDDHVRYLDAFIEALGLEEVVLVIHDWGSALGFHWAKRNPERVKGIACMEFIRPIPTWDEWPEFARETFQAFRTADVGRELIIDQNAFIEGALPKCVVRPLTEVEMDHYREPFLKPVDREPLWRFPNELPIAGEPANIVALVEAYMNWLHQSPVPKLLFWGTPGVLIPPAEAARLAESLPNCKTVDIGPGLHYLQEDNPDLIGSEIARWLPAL
Chain of haloalkane dehalogenase DbjA (P59337 whole entry): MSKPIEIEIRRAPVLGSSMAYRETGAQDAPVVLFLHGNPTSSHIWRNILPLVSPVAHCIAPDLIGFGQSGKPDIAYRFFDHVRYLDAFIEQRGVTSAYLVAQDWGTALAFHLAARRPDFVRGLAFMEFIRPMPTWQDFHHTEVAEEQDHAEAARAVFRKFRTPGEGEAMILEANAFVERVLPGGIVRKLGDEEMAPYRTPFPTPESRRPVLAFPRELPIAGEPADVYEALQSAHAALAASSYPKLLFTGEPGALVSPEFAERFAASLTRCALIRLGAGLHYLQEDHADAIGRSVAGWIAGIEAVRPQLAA
Chain of haloalkane dehalogenase LinB L177D (D4Z2G1 whole entry L177D, looked up): as the sequence (D4Z2G1 whole entry L177K, looked up) above, with K177D counted along it
Chain of haloalkane dehalogenase DhlA (P22643 whole entry): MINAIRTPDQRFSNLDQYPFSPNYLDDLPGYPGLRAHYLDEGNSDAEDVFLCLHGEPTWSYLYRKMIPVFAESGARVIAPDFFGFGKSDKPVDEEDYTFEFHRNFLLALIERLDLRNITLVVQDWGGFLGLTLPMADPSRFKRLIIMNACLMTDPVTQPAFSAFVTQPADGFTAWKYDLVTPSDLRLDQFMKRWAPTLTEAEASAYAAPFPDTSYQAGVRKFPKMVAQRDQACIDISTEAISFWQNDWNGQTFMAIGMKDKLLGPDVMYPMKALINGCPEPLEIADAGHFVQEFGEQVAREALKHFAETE
Chain of haloalkane dehalogenase LinB (D4Z2G1 whole entry): as the sequence (D4Z2G1 whole entry L177K, looked up) above, with K177L counted along it
Chain of haloalkane dehalogenase LinB wild type (D4Z2G1 whole entry): as the sequence (D4Z2G1 whole entry L177K, looked up) above, with K177L counted along it
Chain of haloalkane dehalogenase LinB L177S (D4Z2G1 whole entry L177S, looked up): as the sequence (D4Z2G1 whole entry L177K, looked up) above, with K177S counted along it
Chain of haloalkane dehalogenase LinB L177A (D4Z2G1 whole entry L177A, looked up): as the sequence (D4Z2G1 whole entry L177K, looked up) above, with K177A counted along it
Chain of haloalkane dehalogenase LinB L177C (D4Z2G1 whole entry L177C, looked up): as the sequence (D4Z2G1 whole entry L177K, looked up) above, with K177C counted along it
Chain of haloalkane dehalogenase LinB L177T (D4Z2G1 whole entry L177T, looked up): as the sequence (D4Z2G1 whole entry L177K, looked up) above, with K177T counted along it
Chain of haloalkane dehalogenase LinB L177R (D4Z2G1 whole entry L177R, looked up): as the sequence (D4Z2G1 whole entry L177K, looked up) above, with K177R counted along it
Chain of haloalkane dehalogenase LinB L177V (D4Z2G1 whole entry L177V, looked up): as the sequence (D4Z2G1 whole entry L177K, looked up) above, with K177V counted along it
Chain of haloalkane dehalogenase LinB L177Y (D4Z2G1 whole entry L177Y, looked up): as the sequence (D4Z2G1 whole entry L177K, looked up) above, with K177Y counted along it
Chain of haloalkane dehalogenase LinB L177W (D4Z2G1 whole entry L177W, looked up): as the sequence (D4Z2G1 whole entry L177K, looked up) above, with K177W counted along it
Chain of haloalkane dehalogenase LinB L177Q (D4Z2G1 whole entry L177Q, looked up): as the sequence (D4Z2G1 whole entry L177K, looked up) above, with K177Q counted along it
Chain of haloalkane dehalogenase LinB L177G (D4Z2G1 whole entry L177G, looked up): as the sequence (D4Z2G1 whole entry L177K, looked up) above, with K177G counted along it
Chain of haloalkane dehalogenase LinB L177F (D4Z2G1 whole entry L177F, looked up): as the sequence (D4Z2G1 whole entry L177K, looked up) above, with K177F counted along it
Chain of haloalkane dehalogenase LinB L177H (D4Z2G1 whole entry L177H, looked up): as the sequence (D4Z2G1 whole entry L177K, looked up) above, with K177H counted along it
Chain of haloalkane dehalogenase LinB L177M (D4Z2G1 whole entry L177M, looked up): as the sequence (D4Z2G1 whole entry L177K, looked up) above, with K177M counted along it

How did the “E-values LinB” value [1] turn out when `CC(C)(C)C(Br)CBr` (racemic) [1,2-dibromo-3,3-dimethylbutane] was run?
The value was 1.1.

Which “E-values DbjA” value [2] does the source give for `CCC(Br)CBr` (racemic) [1,2-dibromobutane] here?
Its value is 2.7.

What about the “E-values LinB” value [1] of the same compound?
Its value is 10.

What about the “E-values DhaA” value [3] of the same compound?
The value was 2.

And the “E-values DhlA” value [4]?
Its value is 1.1.

What does the source list for `CC(Br)CCBr` (racemic) [1,3-dibromobutane]?
E-values DbjA [2]: 1.4; E-values LinB [1]: 4.6; E-values DhaA [3]: 1.3; E-values DhlA [4]: 2

Which “E-values DbjA” value [2] does the source give for `CC(Cl)CCCl` (racemic) [1,3-dichlorobutane] here?
Its value is 1.0.

What about the “E-values LinB” value [1] of the same compound?
Its value is 2.6.

And the “E-values DhaA” value [3]?
The value was 1.6.

And the “E-values DhlA” value [4]?
Its value is 2.8.

Which results are given for `CC(CCl)CBr` (racemic) [1-bromo-3-chloro-2-methylpropane]?
E-values DbjA [2]: 1.4; E-values LinB [1]: 1.8; E-values DhaA [3]: 1.7; E-values DhlA [4]: 1.8

How did the “E-values DbjA” value [2] turn out when `CCCCCC(C)Br` (racemic) [2-bromoheptane] was run?
The value was 28.

What about the “E-values LinB” value [1] of the same compound?
Its value is 2.8.

And the “E-values DhaA” value [3]?
The value was 2.9.

What about the “E-values DhlA” value [4] of the same compound?
The value was 2.4.

How did the “E-values DbjA” value [2] turn out when `CCCCC(C)Br` (racemic) [2-bromohexane] was run?
Its value is 35.

What about the “E-values LinB” value [1] of the same compound?
The value was 12.

What about the “E-values DhaA” value [3] of the same compound?
Its value is 4.

How did the “E-values DbjA” value [2] turn out when `COC(=O)C(Br)CCBr` (racemic) [methyl 2,4-dibromobutyrate] was run?
The value was 1.3.

What about the “E-values LinB” value [1] of the same compound?
The value was 1.9.

And the “E-values DhaA” value [3]?
The value was 1.

What about the “E-values DhlA” value [4] of the same compound?
Its value is 1.6.

With `BrCCBr` [1,2-dibromoethane] as the compound, how does the Km [5] read?
Its Km is 14 mM.

And the “Relative activities (% of wt) L177D” value [5]?
The value was 77 % of wt.

And the “Relative activities (% of wt) L177T” value [6]?
Its value is 107 % of wt.

And the “Relative activities (% of wt) L177A” value [7]?
Its value is 155 % of wt.

What about the “Relative activities (% of wt) L177G” value [8] of the same compound?
Its value is 78 % of wt.

What about the “Relative activities (% of wt) L177Q” value [9] of the same compound?
The value was 123 % of wt.

And the “Relative activities (% of wt) L177S” value [10]?
Its value is 84 % of wt.

And the “Relative activities (% of wt) L177F” value [11]?
Its value is 70 % of wt.

What about the “Relative activities (% of wt) L177H” value [12] of the same compound?
The value was 55 % of wt.

What about the “Relative activities (% of wt) L177C” value [13] of the same compound?
Its value is 52 % of wt.

What about the “Relative activities (% of wt) L177V” value [14] of the same compound?
The value was 84 % of wt.

What about the “Relative activities (% of wt) L177M” value [15] of the same compound?
The value was 126 % of wt.

What about the “Relative activities (% of wt) wt1” value [16] of the same compound?
The value was 100 % of wt.

And the “Relative activities (% of wt) wt2” value [16]?
Its value is 100 % of wt.

And the “Relative activities (% of wt) L177Y” value [17]?
The value was 16 % of wt.

And the “Relative activities (% of wt) L177R” value [18]?
Its value is 68 % of wt.

What about the “Relative activities (% of wt) L177W” value [19] of the same compound?
The value was 7 % of wt.

And the “Relative activities (% of wt) L177K” value [20]?
Its value is 97 % of wt.

What does the source list for `CC(Br)CBr` (centres unmarked) [1,2-dibromopropane]?
E-values DbjA [2]: 2.6; E-values LinB [1]: 1.3; E-values DhaA [3]: 1.3; E-values DhlA [4]: 3

With `CC(Cl)CCl` (centres unmarked) [1,2-dichloropropane] as the compound, how does the “E-values DhlA” value [4] read?
The value was 2.

How did the “Relative activities (% of wt) L177D” value [5] turn out when `ICCCI` [1,3-diidopropane] was run?
The value was 209 % of wt.

What about the “Relative activities (% of wt) L177T” value [6] of the same compound?
Its value is 108 % of wt.

What about the “Relative activities (% of wt) L177A” value [7] of the same compound?
Its value is 360 % of wt.

And the “Relative activities (% of wt) L177G” value [8]?
The value was 164 % of wt.

What about the “Relative activities (% of wt) L177Q” value [9] of the same compound?
The value was 159 % of wt.

And the “Relative activities (% of wt) L177S” value [10]?
Its value is 123 % of wt.

And the “Relative activities (% of wt) L177F” value [11]?
The value was 130 % of wt.

What about the “Relative activities (% of wt) L177H” value [12] of the same compound?
The value was 140 % of wt.

What about the “Relative activities (% of wt) L177C” value [13] of the same compound?
Its value is 192 % of wt.

And the “Relative activities (% of wt) L177V” value [14]?
Its value is 206 % of wt.

And the “Relative activities (% of wt) L177M” value [15]?
The value was 202 % of wt.

And the “Relative activities (% of wt) wt1” value [16]?
The value was 100 % of wt.

What about the “Relative activities (% of wt) wt2” value [16] of the same compound?
The value was 100 % of wt.

And the “Relative activities (% of wt) L177Y” value [17]?
Its value is 102 % of wt.

What about the “Relative activities (% of wt) L177R” value [18] of the same compound?
The value was 127 % of wt.

What about the “Relative activities (% of wt) L177W” value [19] of the same compound?
The value was 117 % of wt.

What about the “Relative activities (% of wt) L177K” value [20] of the same compound?
Its value is 132 % of wt.
